Patent publication US8299066B2, “Compounds having NPY Y5 receptor antagonistic activity” (Shionogi & Co., Ltd., priority 2008, dated 2012)

Legend:
mouse NPY Y5 receptor = target: T1, mouse NPY Y5 receptor (Mus musculus, UniProt O70342); assay: Affinity for mouse NPY Y5 receptor ([125I] peptide YY binding, CHO cell membranes); conditions: inhibition of specific [125I] peptide YY binding, membranes of CHO cells expressing mouse NPY Y5 receptor
T1 construct: expressed in transfected cells
T1 sequence (O70342 1-466): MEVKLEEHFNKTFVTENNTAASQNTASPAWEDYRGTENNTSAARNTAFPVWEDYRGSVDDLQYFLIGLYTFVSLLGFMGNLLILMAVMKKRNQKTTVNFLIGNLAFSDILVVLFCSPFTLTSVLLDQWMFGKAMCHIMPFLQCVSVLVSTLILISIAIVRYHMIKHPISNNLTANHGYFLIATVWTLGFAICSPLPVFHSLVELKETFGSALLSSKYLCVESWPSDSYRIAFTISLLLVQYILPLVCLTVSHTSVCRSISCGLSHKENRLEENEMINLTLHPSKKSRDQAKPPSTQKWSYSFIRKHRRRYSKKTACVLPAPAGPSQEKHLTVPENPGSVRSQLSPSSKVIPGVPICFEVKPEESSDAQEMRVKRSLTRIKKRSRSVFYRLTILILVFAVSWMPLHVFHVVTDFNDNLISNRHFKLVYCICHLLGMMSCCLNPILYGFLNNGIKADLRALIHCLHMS
Text: cDNA sequence encoding a mouse NPY Y5 receptor (Biochim. Biophys. Acta 1328:83-89, 1997) was cloned in a vector (pME18S, Takebe et al. Mol. Cell. Biol. 8, 8957). The obtained expression vector was transfected into CHO cells as a host by using Lipofect AMINE Reagent (Trademark, Gico BRL Co., Ltd.) according to the instruction manual. The cells that stably express NPY Y5 receptor were obtained.
The membranes prepared from the CHO cells expressing NPY Y5 receptor, the compound of this invention and 30,000 cpm [^125I] peptide YY (60 pM of final concentration: Amersham) were incubated in the assay buffer (20 mM HEPES-Hanks buffer containing 0.1% bovine serum albumin, pH 7.4) at 25° C. for 2 hours, and then the membrane was filtered from the mixture through a glass filter (GF/C) presoaked with 1% polyethyleneimine. After washing with 50 mM Tris-HCl buffer (pH 7.4), radioactivity retained on the filters was quantified with a gamma counter. Nonspecific binding was defined as the amount of radioactivity bound to the membranes after incubation in the presence of 200 nM of peptide YY. The 50% inhibitory concentration of the test compound against the specific peptide YY binding (IC50 value) was calculated (Inui, A. et al. Endocrinology 131, 2090-2096 (1992)).

[1] = Evaluation for brain penetration in rats (cassette dosing); format: in vivo; conditions: male, Crl; CD (SD), rat; brain/plasma partition coefficient, 30 minutes after intravenous administration (0.5 mg/mL/kg) in rats
Method: (§1) By using the cassette dosing method (Drug. Metab. Dispos. (2001); 29, 957-966), brain penetration rate of the compounds (brain/plasma partition coefficients; Kp) were evaluated from plasma and brain concentrations at 30 minutes after intravenous administration (0.5 mg/mL/kg) in rats (Crl; CD (SD), ♂, 8 weeks) or at 3 or 5 hours after oral administration (2 mg/10 mL/kg) in mice (Jcl; C57BL/6J, ♂, 8 weeks).

[2] = Evaluation for brain penetration in mice (cassette dosing); format: in vivo; conditions: male, Jcl; C57BL/6J, mouse; brain/plasma partition coefficient, 3 or 5 hours after oral administration (2 mg/10 mL/kg) in mice
Method: as §1

[3] = Pharmacokinetic analysis in rats (cassette dosing, intravenous); format: in vivo; conditions: male, Crl, CD (SD), rat, plasma, intravenous administration (0.5 mg/mL/kg); for clearance: read-out: Rat CLtot; for half-life: read-out: Rat t½ (converted)
Method: By using the cassette dosing method, half-life (t1/2) and total clearance (CLtot) of the compounds of this invention were estimated from change in plasma concentration of each compound in rats (Crl; CD (SD), ♂, 8 weeks) after intravenous administration (0.5 mg/mL/kg).

NPY Y5 receptor = target: T2, NPY Y5 receptor (Mus musculus, UniProt O70342); assay: Food intake in mice induced by ICV NPY Y5 receptor specific agonist; format: in vivo
T2 construct: from tissue
T2 sequence (O70342 1-466): T1 sequence (O70342 1-466)
Method: Under diethylether anesthesia the skull of male C57BL/6J mice (12-14 week old, 25-30 g) was exposed by making an incision about 1-cm long from external occipital crest to nasal dorsum, and drilled in the 1-mm lateral position to the left following 1-mm posterior from bregma. After recovery from anesthesia mice were dosed with either 0.5% hydroxypropylmethyl cellulose solution (Shin-Etsu Chemical Co., Ltd) or the compounds of this invention suspended in the 0.5% hydroxypropylmethyl cellulose solution. At one hour after the treatment, each animal received a NPY Y5 receptor specific agonist, [cPP^1-7, NPY^19-23, Ala^31, Aib^32, Gln^34]-hPancreatic Polypeptide (0.1 nmol/1.5 μL/mouse) through the skull opening using a canula. Residual food was measured at 2 and 4 hours after the treatment, and the difference in food intake between the compounds-treated mice and 0.5% hydroxypropylmethyl cellulose solution-treated mice was calculated. The compound at 6 mg/kg caused a significant reduction in food intake of mice compared to the treatment with 0.5% hydroxypropylmethyl cellulose solution.
For example, mean food intakes at 2 and 4 hours after oral administration of Compound IVa-9 at 6 mg/kg in mice (Group A) were 0.24±0.05 g and 0.51±0.06 g, respectively. On the other hand, mean food intakes at 2 and 4 hours after oral administration of 0.5% hydroxypropylmethyl cellulose solution in mice (Group B) were 0.58±0.07 g and 1.26±0.10 g, respectively. Also, mean food intakes at 2 and 4 hours after oral administration of 0.5% hydroxypropylmethyl cellulose solution without ICV injection of NPY Y5 receptor specific agonist in mice (Group C) were 0.06±0.04 g and 0.14±0.05 g, respectively. After subtracting the mean value of Group C from that of Group A or B, the inhibition rates of the compound on food intake at 2 and 4 hours after administration in Group A against Group B were estimated.

Structure (SMILES)	IC50 (mouse NPY Y5 receptor) [nM]	Kp at 0.5 h [1]	Kp at 5 h [2]	clearance [3] [mL/min/kg]	half-life [3] [h]	other results
CC(C)(C)S(=O)(=O)N[C@H]1CC[C@H](c2cc(-c3ccccc3)n[nH]2)CC1 [IVa-3]	1.4	3.69	1.78	7.43	3.82	
CC(C)(C)S(=O)(=O)N[C@H]1CC[C@H](c2nc(-c3ccccc3)n[nH]2)CC1 [Va-2]	2.2			2.6	6.4	
CC(C)(C)S(=O)(=O)N[C@H]1CC[C@H](c2nc(-c3ccccc3)c(C(F)(F)F)[nH]2)CC1 [IIIb-5]				3.84	7.67	
CC(C)(C)S(=O)(=O)N[C@H]1CC[C@H](c2cc3ccc(-c4ccccn4)cc3[nH]2)CC1 [Ia-18]	5.5					
Cc1c(-c2ccccc2)n[nH]c1[C@H]1CC[C@H](NS(=O)(=O)C(C)(C)C)CC1 [IVb-1]		1.88	1.44			
CC(C)(C)S(=O)(=O)N[C@H]1CC[C@H](c2cc3cc(-c4ccccn4)cnc3[nH]2)CC1 [Ib-32]	0.75					
CC(C)(C)S(=O)(=O)N[C@H]1CC[C@H](c2nc(-c3ccccc3)c[nH]2)CC1 [IIIa-1]	0.85					
CC(C)(C)S(=O)(=O)N[C@H]1CC[C@H](c2nc(-c3cccc(C#N)c3)c[nH]2)CC1 [IIIa-13]				14.5	1.17	
CC(C)(C)S(=O)(=O)N[C@H]1CC[C@H](c2cc3cc(-c4ccccn4)ccc3[nH]2)CC1 [Ia-7]	0.28					
CC(C)(C)S(=O)(=O)N[C@H]1CC[C@H](c2cc3c(-c4ccccn4)cccc3[nH]2)CC1 [Ia-2]	1.1					
COc1cccc(-c2nc([C@H]3CC[C@H](NS(=O)(=O)C(C)(C)C)CC3)[nH]c2C(F)(F)F)c1 [IIIb-7]	0.7					
CC(C)(C)S(=O)(=O)N[C@H]1CC[C@H](c2nc(-c3ccccc3)c(Cl)[nH]2)CC1 [IIIb-1]				3.46	4.04	
CC(C)(C)S(=O)(=O)N[C@H]1CC[C@H](c2cc3nc(-c4ccccn4)ccc3[nH]2)CC1 [Ib-14]	0.29					
CC(C)(C)S(=O)(=O)N[C@H]1CC[C@H](c2cc3nc(-c4ccc(F)cc4)ncc3[nH]2)CC1 [Ib-35]		1.91	0.89			

Further lines, with some results ahead:

IC50 (mouse NPY Y5 receptor) [nM]	Kp at 0.5 h [1]	Kp at 5 h [2]	clearance [3] [mL/min/kg]	half-life [3] [h]	Structure (SMILES)	other results
0.22					CC(C)(C)S(=O)(=O)N[C@H]1CC[C@H](c2[nH]cc(-c3ccccc3)c2C#N)CC1 [IIa-3]	
0.37					CC(C)(C)S(=O)(=O)N[C@H]1CC[C@H](c2[nH]nc(-c3ccccc3)c2C#N)CC1 [IVb-23]	
	5.84	3.14	4.04	8.14	CC(C)(C)S(=O)(=O)N[C@H]1CC[C@H](c2[nH]nc(-c3ccccc3)c2F)CC1 [IVb-3]	
	2.28	2.41	2.67	13.6	CC(C)(C)S(=O)(=O)N[C@H]1CC[C@H](c2cc(-c3ccc(F)cc3)n[nH]2)CC1 [IVa-9]	inhibition rate on food intake at 2 hours (NPY Y5 receptor; 6 mg/kg oral, Group A against Group B after subtracting Group C, 2 hours): 65.4%; inhibition rate on food intake at 4 hours (NPY Y5 receptor; 6 mg/kg oral, Group A against Group B after subtracting Group C, 4 hours): 67.0%; mean food intake at 2 hours (NPY Y5 receptor; oral administration at 6 mg/kg in mice, ICV NPY Y5 agonist, 2 hours): 0.24 ± 0.05 g; mean food intake at 4 hours (NPY Y5 receptor; oral administration at 6 mg/kg in mice, ICV NPY Y5 agonist, 4 hours): 0.51 ± 0.06 g
	2.3	1.33			CC(C)(C)S(=O)(=O)N[C@H]1CC[C@H](c2cc3nc(-c4ccccc4F)ccc3[nH]2)CC1 [Ib-13]	
			3.82	9.1	CC(C)(C)S(=O)(=O)N[C@H]1CC[C@H](c2nc(-c3cccc(Cl)c3)n[nH]2)CC1 [Va-5]	
	1.37	0.45	14.8	2.96	CC(C)(C)S(=O)(=O)N[C@H]1CC[C@H](c2nc(-c3ccc(Cl)c(Cl)c3)c[nH]2)CC1 [IIIa-4]	
1.3					CC(C)(C)S(=O)(=O)N[C@H]1CC[C@H](c2cc3c(-c4ccccn4)cncc3[nH]2)CC1 [Ib-28]	
	3.55	2.11	17.8	1.57	CC(C)(C)S(=O)(=O)N[C@H]1CC[C@H](c2cc3cc(-c4ncccn4)ccc3[nH]2)CC1 [Ia-8]	
